Legend:
giant foxtail = test: Test B pre/postemergence giant foxtail; type: in vivo, Setaria faberii
Summary of the method: (§1)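 Response is a visual 0-to-10 score relative to untreated plants, where 0 means no effect and 10 means complete control, taken twelve to sixteen days after application. Treatments went onto soil at planting and onto foliage of 1- to 4-leaf plants, using a surfactant-containing non-phytotoxic solvent.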

rape = test: Test B pre/postemergence rape; type: in vivo, Brassica napus
Summary of the method: as §1

morningglory = test: Test B pre/postemergence morningglory; type: in vivo, Ipomoea hederacea
Summary of the method: as §1

soybean = test: Test B pre/postemergence soybean; type: in vivo, Glycine max
Summary of the method: as §1

pigweed = test: Test B pre/postemergence pigweed; type: in vivo, Amaranthus retroflexus
Summary of the method: as §1

surinam grass = test: Test B pre/postemergence surinam grass; type: in vivo, Brachiaria decumbens
Summary of the method: as §1

wild oat = test: Test B pre/postemergence wild oat; type: in vivo, Avena fatua
Summary of the method: as §1

velvetleaf = test: Test B pre/postemergence velvetleaf; type: in vivo, Abutilon theophrasti
Summary of the method: as §1

bedstraw = test: Test B pre/postemergence bedstraw; type: in vivo, Galium aparine; conditions: Rate 62 g/ha, Postemergence; scale 0 to 10 (0 no effect, 10 complete control)
Summary of the method: as §1

wheat = test: Test B pre/postemergence wheat; type: in vivo, Triticum aestivum
Summary of the method: as §1

smallflower flatsedge = test: Test B flood test smallflower flatsedge; type: in vivo, Cyperus difformis
Summary of the method: (§2)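 Each value is a visual injury score relative to controls, with 10 meaning complete control and 0 no effect. Evaluation took place twelve to sixteen days after the 2-leaf-stage plants were treated and kept in the greenhouse.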

cocklebur = test: Test B pre/postemergence cocklebur; type: in vivo, Xanthium strumarium
Summary of the method: as §1

rice = test: Test B flood test rice; type: in vivo, Oryza sativa
Summary of the method: as §2

sugar beet = test: Test B pre/postemergence sugar beet; type: in vivo, Beta vulgaris
Summary of the method: as §1

corn = test: Test B pre/postemergence corn; type: in vivo, Zea mays
Summary of the method: as §1

blackgrass = test: Test B pre/postemergence blackgrass; type: in vivo, Alopecurus myosuroides
Summary of the method: as §1

[1] = Postemergence, Rate 250 g/ha, scale 0 to 10
[2] = Postemergence, Rate 500 g/ha, scale of 0 to 10 where 0 is no effect and 10 is complete control
[3] = Preemergence, Rate 62 g/ha, scale of 0 to 10 where 0 is no effect and 10 is complete control
[4] = Preemergence, Rate 125 g/ha, scale of 0 to 10 where 0 is no effect and 10 is complete control
[5] = Preemergence, Rate 250 g/ha, scale 0 to 10, 0 is no effect, 10 is complete control
[6] = Preemergence, Rate 500 g/ha, scale 0 to 10, 0 is no effect, 10 is complete control
[7] = Rate 62 g/ha, Postemergence, scale 0 to 10 (0 no effect, 10 complete control)
[8] = Rate 125 g/ha, Postemergence, scale 0 to 10, 0 is no effect, 10 is complete control
[9] = Rate 62 g/ha, flood test species, Pre-emergence, visual evaluation after twelve to sixteen days
[10] = Rate 125 g/ha, under heading Pre-emergence, flood test species, visual evaluation after twelve to sixteen days
[11] = Rate 250 g/ha, Pre-emergence (flood test species), scale 0 to 10, 0 is no effect, 10 is complete control
[12] = Rate 500 g/ha, Pre-emergence, flood test species, scale 0 to 10 (0 no effect, 10 complete control)

COCC(OC)n1c(=O)on(C(=O)N(c2ccc(F)cc2)C(C)C)c1=O (centres unmarked) [Compound 446]
5: Plant response rating, Wild oats (wild oat; [4]) | Corn plant response rating (corn; [2]) | Plant response rating, Blackgrass (blackgrass; [3])
9: Giant foxtail plant response rating (giant foxtail; [1]) | Giant foxtail plant response rating (giant foxtail; [2]) | Plant response rating, Giant foxtail (giant foxtail; [3]) | Giant foxtail plant response rating (giant foxtail; [8]) | Morningglory plant response rating (morningglory; [6]) | Blackgrass plant response rating (blackgrass; [2])
3: Morningglory plant response rating (morningglory; [1]) | Morningglory plant response rating (morningglory; [2]) | B. signalgrass plant response rating (surinam grass; [8]) | Wild oats plant response rating (wild oat; [1]) | Wild oats plant response rating (wild oat; [2]) | Velvetleaf plant response rating (velvetleaf; [2]) | Plant response rating, Velvetleaf (velvetleaf; [4]) | Wheat plant response rating (wheat; [1]) | Wheat plant response rating (wheat; [2]) | Wheat plant response rating (wheat; [5])
4: Soybean plant response rating (soybean; [1]) | Soybean plant response rating (soybean; [2]) | Plant response rating, Sugarbeets (sugar beet; [4]) | Blackgrass plant response rating (blackgrass; [7])
0: Rape plant response rating (rape; [1]) | Rape plant response rating (rape; [2]) | Plant response rating, Rape (rape; [3]) | Plant response rating, Rape (rape; [4]) | Rape plant response rating (rape; [7]) | Rape plant response rating (rape; [8]) | Plant response rating, Morningglory (morningglory; [3]) | Plant response rating, Morningglory (morningglory; [4]) | Morningglory plant response rating (morningglory; [5]) | Plant response rating, Soybean (soybean; [3]) | Plant response rating, Soybean (soybean; [4]) | Redroot pigweed plant response rating (pigweed; [1]) | Redroot pigweed plant response rating (pigweed; [2]) | Redroot pigweed plant response rating (pigweed; [7]) | Redroot pigweed plant response rating (pigweed; [8]) | Plant response rating, B. signalgrass (surinam grass; [3]) | Plant response rating, Wild oats (wild oat; [3]) | Wild oats plant response rating (wild oat; [7]) | Wild oats plant response rating (wild oat; [8]) | Plant response rating, Velvetleaf (velvetleaf; [3]) | Velvetleaf plant response rating (velvetleaf; [7]) | Velvetleaf plant response rating (velvetleaf; [8]) | Bedstraw plant response rating (bedstraw) | Plant response rating, Wheat (wheat; [3]) | Wheat plant response rating (wheat; [7]) | Wheat plant response rating (wheat; [8]) | Plant response rating, S. Flatsedge (0 to 10 scale, 0 is no effect, 10 is complete control) (smallflower flatsedge; [9]) | S. Flatsedge plant response rating (0 to 10 scale, 0 is no effect, 10 is complete control) (smallflower flatsedge; [10]) | S. Flatsedge plant response rating (smallflower flatsedge; [11]) | S. Flatsedge plant response rating (smallflower flatsedge; [12]) | Cocklebur plant response rating (cocklebur; [1]) | Cocklebur plant response rating (cocklebur; [2]) | Plant response rating, Cocklebur (cocklebur; [3]) | Plant response rating, Cocklebur (cocklebur; [4]) | Cocklebur plant response rating (cocklebur; [5]) | Cocklebur plant response rating (cocklebur; [6]) | Cocklebur plant response rating (cocklebur; [7]) | Cocklebur plant response rating (cocklebur; [8]) | Plant response rating, Rice (0 to 10 scale, 0 is no effect, 10 is complete control) (rice; [9]) | Rice plant response rating (0 to 10 scale, 0 is no effect, 10 is complete control) (rice; [10]) | Rice plant response rating (rice; [11]) | Rice plant response rating (rice; [12]) | Sugarbeets plant response rating (sugar beet; [1]) | Sugarbeets plant response rating (sugar beet; [2]) | Plant response rating, Sugarbeets (sugar beet; [3]) | Sugarbeets plant response rating (sugar beet; [7]) | Sugarbeets plant response rating (sugar beet; [8]) | Corn plant response rating (corn; [1]) | Plant response rating, Corn (corn; [3]) | Plant response rating, Corn (corn; [4]) | Corn plant response rating (corn; [7]) | Corn plant response rating (corn; [8])
2: Morningglory plant response rating (morningglory; [7]) | Morningglory plant response rating (morningglory; [8]) | Soybean plant response rating (soybean; [5]) | Soybean plant response rating (soybean; [6]) | Soybean plant response rating (soybean; [8]) | B. signalgrass plant response rating (surinam grass; [7]) | Velvetleaf plant response rating (velvetleaf; [1]) | Plant response rating, Wheat (wheat; [4]) | Corn plant response rating (corn; [5])
10: Plant response rating, Giant foxtail (giant foxtail; [4]) | Giant foxtail plant response rating (giant foxtail; [5]) | Giant foxtail plant response rating (giant foxtail; [6]) | Rape plant response rating (rape; [6]) | Plant response rating, Redroot pigweed (pigweed; [4]) | Redroot pigweed plant response rating (pigweed; [5]) | Redroot pigweed plant response rating (pigweed; [6]) | Wild oats plant response rating (wild oat; [6]) | Velvetleaf plant response rating (velvetleaf; [6]) | Blackgrass plant response rating (blackgrass; [6])
6: Giant foxtail plant response rating (giant foxtail; [7]) | Plant response rating, Redroot pigweed (pigweed; [3]) | B. signalgrass plant response rating (surinam grass; Postemergence, Rate 250 g/ha, scale 0 to 10, 0 no effect, 10 complete control) | Plant response rating, B. signalgrass (surinam grass; [4]) | Sugarbeets plant response rating (sugar beet; [5]) | Corn plant response rating (corn; [6])
1: Soybean plant response rating (soybean; [7])
8: Rape plant response rating (rape; [5]) | B. signalgrass plant response rating (surinam grass; [2]) | B. signalgrass plant response rating (surinam grass; [6]) | Wild oats plant response rating (wild oat; [5]) | Sugarbeets plant response rating (sugar beet; [6]) | Blackgrass plant response rating (blackgrass; [1]) | Blackgrass plant response rating (blackgrass; [5]) | Blackgrass plant response rating (blackgrass; [8])
7: B. signalgrass plant response rating (surinam grass; [5]) | Velvetleaf plant response rating (velvetleaf; [5]) | Wheat plant response rating (wheat; [6]) | Plant response rating, Blackgrass (blackgrass; [4])

— patent publication US6737383B1, “Herbicidal oxadiazolidines” (priority 1999, dated 2004)
